Assay results published in patent publication US20080261942A1, “COMBINATIONS OF BILE ACID SEQUESTRANT(S) AND STEROL ABSORPTION INHIBITOR(S) AND TREATMENTS FOR VASCULAR INDICATIONS” (SCHERING CORPORATION, priority 2001, published 2008).

Tested on: free cholesterol absorption
Assay: short term hamster model tracking a bolus of gavaged radiolabeled cholesterol
Type: in vivo, Male Golden Syrian hamsters
Text: To follow the movement of lipids across the intestinal wall leading to its subsequent appearance in the lymph, blood and liver, a short term hamster model which tracked a bolus of gavaged radiolabeled lipid was used. Free cholesterol absorption was examined in this hamster model to explore whether the cholesterol absorption inhibitor compound of Formula (XII): […]
Male Golden Syrian hamsters were fed a diet containing 0.5% cholesterol overnight and divided into groups of 5 animals. […] Two hours later, blood and liver samples were collected from each hamster. The blood was centrifuged for 20 minutes at 3000 rpm and the plasma was removed. Aliquots of the plasma and liver were analyzed for [^14C] radioactivity. Radioactive content was determined using a Beckman LSC (liquid […] counter).

[1] = hamsters fed 0.5% cholesterol diet, gavage 1 h before [14C]-cholesterol, samples two hours later, Compound XII 3 mg/kg, cholestyramine 1 g/kg
[2] = hamsters fed 0.5% cholesterol diet, samples two hours after [14C]-cholesterol, Compound XII 3 mg/kg, cholestyramine 1 g/kg
[3] = specified dosage (Compound XII 3 mg/kg, cholestyramine 1 g/kg)

COc1ccc([C@@H]2[C@@H](CCCc3ccccc3)C(=O)N2c2ccc(OC)cc2)cc1 [Compound XII]
Liver [14C]-cholesterol (DPM/gram of liver) [1]: 3755 ± 923 DPM/gram of liver | Plasma [14C]-cholesterol (Decays Per Minute (DPM)/milliter of plasma) [1]: 1438 ± 455 DPM/milliter of plasma | Liver [14C]-cholesterol, change versus Control (in brackets) [2]: −53% | Plasma [14C]-cholesterol, change versus Control (in brackets) [2]: −71% | reduction of liver (hepatic) [14C]-cholesterol levels [3]: 53% | reduction of plasma [14C]-cholesterol levels [3]: 71%
